The nature of the data set: Compound gel-forming ability in water (visual inspection, tube tapping assay, tilted tube assay).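 For all read-outs here: peptides mixed with de-ionized water at about 22-25 °C, judged after 20 min by eye plus tube tapping (10 taps, moves counted) and 90° tilt mobility.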 The format is physicochemical. To be noted: for gel formation in aqueous solution, 3% / propensity to form gels, chimeric or mutated polypeptides, 3%: 3% w/w; for gel formation in aqueous solution, 6% / propensity to form gels, chimeric or mutated polypeptides, 6%: 6% w/w; for gel formation in aqueous solution, 11% / propensity to form gels, chimeric or mutated polypeptides, 11%: 11% w/w; for propensity to form gels, chimeric or mutated polypeptides, 3% / propensity to form gels, chimeric or mutated polypeptides, 6% / propensity to form gels, chimeric or mutated polypeptides, 11% / propensity to form gels, chimeric or mutated polypeptides, 20%: Table 5; for gel formation at 6% w/w: 6% w/w in water; for gel formation at 11% w/w: 11% w/w in water; for gel formation at 3% w/w: 3% w/w in water; for gel formation at 20% w/w: 20% w/w in water; for gel formation in aqueous solution, 20% / propensity to form gels, chimeric or mutated polypeptides, 20%: 20% w/w; for Physical property at 11% w/w: 11% w/w in aqueous solution, room temperature.

Where no end group is shown, it is not given here. The star is where a group is joined. Palmitoyl = CCCCCCCCCCCCCCCC(=O)*

This is an account of results in patent publication US20200405868A1, “GEL-FORMING POLYPEPTIDES” (priority 2018, published 2020).

“Pal-KVQKLSAPVDPSSPHSY-miniPEG-(D-Tyr)QWAV(β-Ala)HF(Nle)-NH2 [SEQ ID NO:209]”: the “propensity to form gels, chimeric or mutated polypeptides, 3%” value (“propensity to form gels … 3%” for short) was “SS (An ability to form semisolid gel is represented by an SS)”; the “propensity to form gels, chimeric or mutated polypeptides, 6%” value (“propensity to form gels … 6%” for short) is listed as “SS (An ability to form semisolid gel is represented by an SS)”; the “propensity to form gels, chimeric or mutated polypeptides, 11%” value (shortened to “propensity to form gels … 11%”) is reported as “SS (An ability to form semisolid gel is represented by an SS)”. For the setting “Table 3”, the “gel formation in aqueous solution, 3%” value is listed as “SS (SS for semisolid gel)”; the “gel formation in aqueous solution, 6%” value is “SS (SS for semisolid gel)”; the “gel formation in aqueous solution, 11%” value is on record as “SS (SS for semisolid gel)”.
On to “Pal-KVQKLSAPVDPSSPHSY-miniPEG-CSNLSTCVLGKLSQELHKLQTYPRTNTGSGTP-NH2 [SEQ ID NO:217]”, for which the “gel formation at 6% w/w” value was “liquid gel”; the “gel formation at 11% w/w” value is “semisolid gel”; the “propensity to form gels … 11%” value is recorded as “SS (An ability to form semisolid gel is represented by an SS)”. Moreover, the “gel formation in aqueous solution, 11%” value (Table 3) was “SS (SS for semisolid gel)”.
For “Pal-KVQKLSAPVDPSSPHSY-miniPEG-CYFQNCPRG-NH2 [SEQ ID NO:204]”, the “gel formation at 6% w/w” value is “semisolid gel”; the “gel formation at 11% w/w” value is listed as “semisolid gel”; the “propensity to form gels … 6%” value is “SS (An ability to form semisolid gel is represented by an SS)”; the “propensity to form gels … 11%” value is given as “SS (An ability to form semisolid gel is represented by an SS)”. Where the note is “Table 3”, the “gel formation in aqueous solution, 6%” value was “SS (SS for semisolid gel)” and the “gel formation in aqueous solution, 11%” value is “SS (SS for semisolid gel)”.
With “Pal-KVQKLSAPVDPSSPHSY-miniPEG-CYIQNCPLG-NH2 [SEQ ID NO:205]”, the “gel formation at 6% w/w” value was “liquid gel”; the “gel formation at 11% w/w” value is recorded as “semisolid gel”; the “propensity to form gels … 11%” value was “SS (An ability to form semisolid gel is represented by an SS)”. The “gel formation in aqueous solution, 11%” value (Table 3) is “SS (SS for semisolid gel)”.
Take “Pal-KVQKLSAPVDPSSPHSY-miniPEG-EHWSY-(D-2Nal)-LRPG-NH2 [SEQ ID NO:201]”: the “gel formation at 3% w/w” value is on record as “semisolid gel”; the “gel formation at 6% w/w” value is given as “semisolid gel”; the “gel formation at 11% w/w” value is listed as “semisolid gel”; the “propensity to form gels … 3%” value was “SS (An ability to form semisolid gel is represented by an SS)”. Also, the “propensity to form gels … 6%” value is listed as “SS (An ability to form semisolid gel is represented by an SS)” and the “propensity to form gels … 11%” value is given as “SS (An ability to form semisolid gel is represented by an SS)”. For the setting “Table 3”, the “gel formation in aqueous solution, 3%” value is recorded as “SS (SS for semisolid gel)”; the “gel formation in aqueous solution, 6%” value was “SS (SS for semisolid gel)”; the “gel formation in aqueous solution, 11%” value is reported as “SS (SS for semisolid gel)”.
For the substance “Pal-KVQKLSAPVDPSSPHSY-miniPEG-HAEGTFTSDVSSYLEGQAAKEFIAWLVKGR-NH2 [SEQ ID NO:220]”, the “propensity to form gels … 11%” value is reported as “SS (An ability to form semisolid gel is represented by an SS)”. In addition, the “gel formation in aqueous solution, 11%” value (Table 3) is listed as “SS (SS for semisolid gel)”.
“Pal-KVQKLSAPVDPSSPHSY-miniPEG-RPKPQQFFGLM-NH2 [SEQ ID NO:215]”: the “propensity to form gels … 6%” value is recorded as “AS/IS” and the “propensity to form gels … 11%” value was “SS (An ability to form semisolid gel is represented by an SS)”. Under “Table 3”, the “gel formation in aqueous solution, 6%” value is “AS/IS (AS/IS for aqueous solution or insoluble)” and the “gel formation in aqueous solution, 11%” value is recorded as “SS (SS for semisolid gel)”.
As for “Pal-KVQKLSAPVDPSSPHSY-miniPEG-Sar-RVYVHPA-NH2 [SEQ ID NO:216]”, the “gel formation at 11% w/w” value is listed as “liquid gel” and the “gel formation at 20% w/w” value is given as “liquid gel”.
With “Pal-KVQKLSAPVDPSSPHSY-miniPEG-Y-(D-Ala)-GF(D-Leu)-NH2 [SEQ ID NO:212]”, the “gel formation at 3% w/w” value is “semisolid gels” and the “propensity to form gels … 3%” value is on record as “SS (An ability to form semisolid gel is represented by an SS)”. Moreover, under “Table 3”, the “gel formation in aqueous solution, 3%” value is recorded as “SS (SS for semisolid gel)”.
With “Pal-KVQKLSAPVDPSSPHSY-miniPEG-Y-(D-Met)-FHLMD-NH2 [SEQ ID NO:210]”, the “gel formation at 6% w/w” value is “semisolid or liquid gel”; the “gel formation at 11% w/w” value is given as “semisolid gel”; the “propensity to form gels … 6%” value is recorded as “SS (An ability to form semisolid gel is represented by an SS)”; the “propensity to form gels … 11%” value is on record as “SS (An ability to form semisolid gel is represented by an SS)”. Where the note is “Table 3”, the “gel formation in aqueous solution, 6%” value was “SS (SS for semisolid gel)” and the “gel formation in aqueous solution, 11%” value was “SS (SS for semisolid gel)”.
In the case of “Pal-KVQKLSAPVDPSSPHSY-miniPEG-YNWNSFGLRF-NH2 [SEQ ID NO:208]”, the “propensity to form gels, chimeric or mutated polypeptides, 20%” value (shortened to “propensity to form gels … 20%”) is “SS (An ability to form semisolid gel is represented by an SS)”. The “gel formation in aqueous solution, 20%” value (Table 3) was “SS (SS for semisolid gel)”.
For the substance “Pal-KVQNLSAPVDPSSPHSY-NH2 [SEQ ID NO:104]”, the “Physical property at 11% w/w” value (Table 2) was “AS/IS (AS/IS for aqueous solution or insoluble)”.
As for “Pal-QKLAHQIYQFTDKDVAPRSKISPQGY-NH2 (Palmitoyl-QKLAHQIYQFTDKDVAPRSKISPQGY-NH2; SMILES CCCCCCCCCCCCCCCC(=O)N[C@@H](CCC(N)=O)C(=O)N[C@@H](CCCCN)C(=O)N[C@@H](CC(C)C)C(=O)N[C@@H](C)C(=O)N[C@@H](Cc1c[nH]cn1)C(=O)N[C@@H](CCC(N)=O)C(=O)N[C@H](C(=O)N[C@@H](Cc1ccc(O)cc1)C(=O)N[C@@H](CCC(N)=O)C(=O)N[C@@H](Cc1ccccc1)C(=O)N[C@H](C(=O)N[C@@H](CC(=O)O)C(=O)N[C@@H](CCCCN)C(=O)N[C@@H](CC(=O)O)C(=O)N[C@H](C(=O)N[C@@H](C)C(=O)N1CCC[C@H]1C(=O)N[C@@H](CCCNC(=N)N)C(=O)N[C@@H](CO)C(=O)N[C@@H](CCCCN)C(=O)N[C@H](C(=O)N[C@@H](CO)C(=O)N1CCC[C@H]1C(=O)N[C@@H](CCC(N)=O)C(=O)NCC(=O)N[C@@H](Cc1ccc(O)cc1)C(N)=O)[C@@H](C)CC)C(C)C)[C@@H](C)O)[C@@H](C)CC) [SEQ ID NO:103]”, the “Physical property at 11% w/w” value (Table 2) is reported as “AS/IS (AS/IS for aqueous solution or insoluble)”.
Regarding “Pal-RQSMNNFQGLRSFGCRFGTCTVQKLAHQIYQFTDKDKDNVAPRSKISPQGY-NH2 [SEQ ID NO:274]”, the “gel formation at 6% w/w” value is listed as “semisolid gel”; the “gel formation at 11% w/w” value is “semisolid gel”; the “gel formation at 20% w/w” value was “semisolid gel”; the “propensity to form gels … 6%” value is given as “SS (An ability to form semisolid gel is represented by an SS)”. For the same substance, the “propensity to form gels … 11%” value is reported as “SS (An ability to form semisolid gel is represented by an SS)” and the “propensity to form gels … 20%” value was “SS (An ability to form semisolid gel is represented by an SS)”. Besides, the “Physical property at 11% w/w” value (Table 1) is “SS (SS for semisolid gel)”. Where the note is “Table 3”, the “gel formation in aqueous solution, 6%” value is “SS (SS for semisolid gel)”; the “gel formation in aqueous solution, 11%” value is “SS (SS for semisolid gel)”; the “gel formation in aqueous solution, 20%” value was “SS (SS for semisolid gel)”.
In the case of “Pal-SDAAVDTSSEITTKDLKEKKEVVEEAEN-NH2 [SEQ ID NO:268]”, the “gel formation at 11% w/w” value is reported as “semisolid gel” and the “propensity to form gels … 11%” value was “SS (An ability to form semisolid gel is represented by an SS)”. The “gel formation in aqueous solution, 11%” value (Table 3) is reported as “SS (SS for semisolid gel)”.
For the substance Pal-SSPHSY-NH2 [SEQ ID NO:119], the “Physical property at 11% w/w” value (Table 2) is “SS (SS for semisolid gel)”.
With “Pal-SSPHSY-miniPEG -SYS-Nle-EH-(D-Phe)-RWGKPV-NH2 [SEQ ID NO:223]”, the “gel formation in aqueous solution, 20%” value (Table 3) is recorded as “SS (SS for semisolid gel)”.
Turning to “Pal-SSPHSY-miniPEG-(D-Ala)-(D-(β-naphthyl))-AAW-(D-Phe)-Lys-NH2 [SEQ ID NO:235]”, the “gel formation at 3% w/w” value is recorded as “semisolid gel”; the “gel formation at 6% w/w” value is on record as “semisolid gel”; the “gel formation at 11% w/w” value is “semisolid gel”; the “propensity to form gels … 3%” value is listed as “SS (An ability to form semisolid gel is represented by an SS)”. In addition, the “propensity to form gels … 6%” value is on record as “SS (An ability to form semisolid gel is represented by an SS)” and the “propensity to form gels … 11%” value was “SS (An ability to form semisolid gel is represented by an SS)”. Also, where the note is “Table 3”, the “gel formation in aqueous solution, 3%” value is “SS (SS for semisolid gel)”; the “gel formation in aqueous solution, 6%” value is given as “SS (SS for semisolid gel)”; the “gel formation in aqueous solution, 11%” value is “SS (SS for semisolid gel)”.
In the case of “Pal-SSPHSY-miniPEG-(D-Arg)-Arg-Pro-Hyp-Gly-Thi-Ser-(D-Tic)-Oic-Arg [SEQ ID NO:233]”, the “gel formation at 30% w/w” value (30% w/w in water) is recorded as “semisolid gel”. For the same substance, for the setting “Table 3”, the “gel formation in aqueous solution, 11%” value is “AS/IS (AS/IS for aqueous solution or insoluble)”. In addition, the “gel formation in aqueous solution, 30%” value (Table 3, 30% w/w) is recorded as “SS (SS for semisolid gel)”.
Consider “Pal-SSPHSY-miniPEG-EAYKAAEKAYAAKEAAKEAAKAKAEKKAAYAKAKAAKYEKKAKKAAAEYKKK ({Palmitoyl-Ser-Ser-Pro-H2N-Ser-Tyr-miniPEG}-EAYKAAEKAYAAKEAAKEAAKAKAEKKAAYAKAKAAKYEKKAKKAAAEYKKK) [SEQ ID NO:245]”, for which the “gel formation at 20% w/w” value is listed as “semisolid gel”; the “propensity to form gels … 11%” value is recorded as “AS/IS”; the “propensity to form gels … 20%” value is recorded as “SS (An ability to form semisolid gel is represented by an SS)”. Besides, where the note is “Table 3”, the “gel formation in aqueous solution, 11%” value was “AS/IS (AS/IS for aqueous solution or insoluble)” and the “gel formation in aqueous solution, 20%” value was “SS (SS for semisolid gel)”.
As for “Pal-SSPHSY-miniPEG-FLPLIGRVLSGIL-NH2 ({Palmitoyl-Ser-Ser-Pro-H2N-Ser-Tyr-miniPEG}-FLPLIGRVLSGIL-NH2) [SEQ ID NO:243]”, the “gel formation at 11% w/w” value is “semisolid gel”. Under “Table 3”, the “gel formation in aqueous solution, 6%” value is “AS/IS (AS/IS for aqueous solution or insoluble)” and the “gel formation in aqueous solution, 11%” value was “SS (SS for semisolid gel)”.
